Test results: PubChem BioAssay AID730 (The Scripps Research Institute Molecular Screening Center, 2007)
Active and inactive are the calls of the source.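 Rule for the calls: active = EC50 at or below 10 micromolar, taken from the curve fit or judged by hand from the single doses; inactive = EC50 above 10 micromolar.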

These compounds were tested against CHO S1P3/Ga15 NFAT-beta-lactamase reporter, FRET fluorescence (assay: nonspecific agonism in S1P3 NFAT-BLA cells – counter-screen for 5HT1E agonist project, dose response (AID 730)).

EC50 | SMILES
> 40 µM (inactive) | CCOC(=O)C1=C(C)NC(=O)NC1c1ccc(OCC(=O)Nc2ccccc2)c(OC)c1 (stereo not drawn)
> 40 µM (inactive) | CN1CCN(/C(=N\O)c2nonc2N)CC1
> 40 µM (inactive) | Cn1cc(/C(Cc2ccccc2)=N\O)c2ccccc21
